From ChEMBL document CHEMBL1201862, “PubChem BioAssay data set” (2004)
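These data come from cells grown in 96-well plates and exposed to compound for 48 hours at five concentrations. At the GI50, growth is halved.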 Active and inactive are the calls of the source. Rule as the data show it: active = GI50 up to about 1.1 µM and inactive = higher.

Columns and labels:
Assay in all cases: inhibition of tumour cell growth, NCI panel, 48 h
ACHN = tested on: ACHN
BT-549 = tested on: BT-549
CAKI-1 = tested on: CAKI-1
CCRF-CEM = tested on: CCRF-CEM
COLO 205 = tested on: COLO 205
DU-145 = tested on: DU-145
EKVX = tested on: EKVX
HCC 2998 = tested on: HCC 2998
HCT-15 = tested on: HCT-15
K562 = tested on: K562
KM12 = tested on: KM12
NCI-H226 = tested on: NCI-H226
NCI-H522 = tested on: NCI-H522
OVCAR-8 = tested on: OVCAR-8
SNB-19 = tested on: SNB-19
T47D = tested on: T47D
U-251 = tested on: U-251
UACC-257 = tested on: UACC-257
UO-31 = tested on: UO-31
HL-60 = tested on: HL-60

Row | SMILES | GI50 (ACHN) | GI50 (BT-549) | GI50 (CAKI-1) | GI50 (CCRF-CEM) | GI50 (COLO 205) | GI50 (DU-145) | GI50 (EKVX) | GI50 (HCC 2998) | GI50 (HCT-15) [µM] | GI50 (K562) | GI50 (KM12) | GI50 (NCI-H226) | GI50 (NCI-H522) | GI50 (OVCAR-8) | GI50 (SNB-19) | GI50 (T47D) | GI50 (U-251) | GI50 (UACC-257) | GI50 (UO-31) | GI50 (HL-60)
1 | O=C1c2scnc2-c2nccc3c2c1nc1ccccc13 [KUANONIAMINE A] | 0.955 µM (active) | 1.25 µM (inactive) | 1.63 µM (inactive) | 0.416 µM (active) | 1.31 µM (inactive) | 1.6 µM (inactive) | 2.92 µM (inactive) | 1.15 µM (inactive) | 0.207 | 0.682 µM (active) | 1.41 µM (inactive) | 1.44 µM (inactive) | 0.0169 µM (active) | 0.226 µM (active) | 0.389 µM (active) | 0.215 µM (active) | 0.268 µM (active) | 0.363 µM (active) | 1.16 µM (inactive) | –
2 | CCOC(=O)c1nc2ccc(C(F)(F)F)cc2nc1Oc1ccc(F)cc1 | > 100 µM (inactive) | > 100 µM (inactive) | > 100 µM (inactive) | > 100 µM (inactive) | > 100 µM (inactive) | > 100 µM (inactive) | > 100 µM (inactive) | > 100 µM (inactive) | > 100 | 42.3 µM (inactive) | > 100 µM (inactive) | > 100 µM (inactive) | – | > 100 µM (inactive) | > 100 µM (inactive) | > 100 µM (inactive) | > 100 µM (inactive) | > 100 µM (inactive) | > 100 µM (inactive) | > 100 µM (inactive)
3 | CC1OC(Oc2c(-c3cc(O)c(O)c(O)c3)oc3cc(O)cc(O)c3c2=O)C(O)C(O)C1O (stereo unspecified) | > 100 µM (inactive) | > 100 µM (inactive) | > 100 µM (inactive) | > 10 µM (inactive) | > 100 µM (inactive) | > 100 µM (inactive) | > 100 µM (inactive) | > 100 µM (inactive) | > 100 | – | > 100 µM (inactive) | > 100 µM (inactive) | > 100 µM (inactive) | > 100 µM (inactive) | > 100 µM (inactive) | > 100 µM (inactive) | > 100 µM (inactive) | > 100 µM (inactive) | > 100 µM (inactive) | 56.6 µM (inactive)
4 | SCCSCCCSCCS | – | 53.3 µM (inactive) | – | 10.5 µM (inactive) | 86.9 µM (inactive) | 56.4 µM (inactive) | > 100 µM (inactive) | > 100 µM (inactive) | > 100 | 92.7 µM (inactive) | > 100 µM (inactive) | – | 19.3 µM (inactive) | > 100 µM (inactive) | 71.9 µM (inactive) | 50.2 µM (inactive) | > 100 µM (inactive) | 59.3 µM (inactive) | 15.7 µM (inactive) | 9.31 µM (inactive)
5 | OC/C=C/[C@H](OCc1ccccc1)[C@H](/C=C/CO)OCc1ccccc1 | 49.3 µM (inactive) | 59.2 µM (inactive) | > 100 µM (inactive) | 20.1 µM (inactive) | 59.3 µM (inactive) | 81.1 µM (inactive) | 47.6 µM (inactive) | 50.2 µM (inactive) | 34.8 | 24.8 µM (inactive) | 41.8 µM (inactive) | > 100 µM (inactive) | 37.3 µM (inactive) | 46.2 µM (inactive) | 31.2 µM (inactive) | 23.7 µM (inactive) | 24.5 µM (inactive) | 75.2 µM (inactive) | 64.1 µM (inactive) | –
6 | COc1ccc2c3c([nH]c2c1)[C@H]1C[C@H]2[C@H](C[C@@H](O)[C@H](OC)[C@H]2C(=O)O)CN1CC3 | > 100 µM (inactive) | > 100 µM (inactive) | > 100 µM (inactive) | > 100 µM (inactive) | > 100 µM (inactive) | > 100 µM (inactive) | > 100 µM (inactive) | > 100 µM (inactive) | > 100 | > 100 µM (inactive) | > 100 µM (inactive) | > 100 µM (inactive) | > 100 µM (inactive) | > 100 µM (inactive) | > 100 µM (inactive) | > 100 µM (inactive) | > 100 µM (inactive) | > 100 µM (inactive) | > 100 µM (inactive) | –
7 | NCCN/C(=N\c1ccccc1)Nc1ccccc1 | – | > 100 µM (inactive) | > 100 µM (inactive) | > 100 µM (inactive) | > 100 µM (inactive) | > 100 µM (inactive) | > 100 µM (inactive) | > 100 µM (inactive) | > 100 | > 100 µM (inactive) | > 100 µM (inactive) | > 100 µM (inactive) | 68.4 µM (inactive) | > 100 µM (inactive) | > 100 µM (inactive) | > 10 µM (inactive) | > 100 µM (inactive) | > 100 µM (inactive) | > 100 µM (inactive) | > 100 µM (inactive)
